# Values quoted from earlier work as cited in US20250369985A1, “METHOD FOR DETERMINING THE THERAPEUTIC REGIMEN FOR AN INDIVIDUAL AND ITS USE” (MOSAIQUES DIAGNOSTICS AND THERAPEUTICS AG, priority 2022, published 2025).
# Where two headings read alike, the source gives them in different places.
# Test system: urinary proteins/peptides (71 biomarkers of CD71 classifier)
# [1] = peptide 99900220 (Seq. ID No. 1)
# [2] = peptide 99900467 (Seq. ID No. 2)
# [3] = peptide 99901399 (Seq. ID No. 3)
# [4] = peptide 99902592 (Seq. ID No. 4)
# [5] = peptide 99903025 (Seq. ID No. 5)
# [6] = peptide 99904405 (Seq. ID No. 6)
# [7] = peptide 99904666 (Seq. ID No. 7)
# [8] = peptide 99904862 (Seq. ID No. 8)
# [9] = peptide 99905044 (Seq. ID No. 9)
# [10] = peptide 99905259 (Seq. ID No. 10)
# [11] = peptide 99905274 (Seq. ID No. 11)
# [12] = peptide 99905379 (Seq. ID No. 12)
# [13] = peptide 99905423 (Seq. ID No. 13)
# [14] = peptide 99905509 (Seq. ID No. 14)
# [15] = peptide 99905551 (Seq. ID No. 15)
# [16] = peptide 99906176 (Seq. ID No. 16)
# [17] = peptide 99907275 (Seq. ID No. 17)
# [18] = peptide 99907807 (Seq. ID No. 18)
# [19] = peptide 99908755 (Seq. ID No. 19)
# [20] = peptide 99908795 (Seq. ID No. 20)
# [21] = peptide 99908916 (Seq. ID No. 21)
# [22] = peptide 99909059 (Seq. ID No. 22)
# [23] = peptide 99910002 (Seq. ID No. 23)
# [24] = peptide 99910032 (Seq. ID No. 24)
# [25] = peptide 99910407 (Seq. ID No. 25)
# [26] = peptide 99910483 (Seq. ID No. 26)
# [27] = peptide 99910554 (Seq. ID No. 27)
# [28] = peptide 99910883 (Seq. ID No. 28)
# [29] = peptide 99911002 (Seq. ID No. 29)
# [30] = peptide 99911193 (Seq. ID No. 30)
# [31] = peptide 99911415 (Seq. ID No. 31)
# [32] = peptide 99911559 (Seq. ID No. 32)
# [33] = peptide 99911777 (Seq. ID No. 33)
# [34] = peptide 99912101 (Seq. ID No. 34)
# [35] = peptide 99912211 (Seq. ID No. 35)
# [36] = peptide 99912366 (Seq. ID No. 36)
# [37] = peptide 99912411 (Seq. ID No. 37)
# [38] = peptide 99912661 (Seq. ID No. 38)
# [39] = peptide 99913200 (Seq. ID No. 39)
# [40] = peptide 99913322 (Seq. ID No. 40)
# [41] = peptide 99913825 (Seq. ID No. 41)
# [42] = peptide 99914211 (Seq. ID No. 42)
# [43] = peptide 99914445 (Seq. ID No. 43)
# [44] = peptide 99914876 (Seq. ID No. 44)
# [45] = peptide 99914887 (Seq. ID No. 45)
# [46] = peptide 99914893 (Seq. ID No. 46)
# [47] = peptide 99914935 (Seq. ID No. 47)
# [48] = peptide 99915015 (Seq. ID No. 48)
# [49] = peptide 99915755 (Seq. ID No. 49)
# [50] = peptide 99915778 (Seq. ID No. 50)
# [51] = peptide 99915883 (Seq. ID No. 51)
# [52] = peptide 99916170 (Seq. ID No. 52)
# [53] = peptide 99916177 (Seq. ID No. 53)
# [54] = peptide 99916611 (Seq. ID No. 54)
# [55] = peptide 99916615 (Seq. ID No. 55)
# [56] = peptide 99916966 (Seq. ID No. 56)
# [57] = peptide 99917047 (Seq. ID No. 57)
# [58] = peptide 99917221 (Seq. ID No. 58)
# [59] = peptide 99917280 (Seq. ID No. 59)
# [60] = peptide 99917288 (Seq. ID No. 60)
# [61] = peptide 99917419 (Seq. ID No. 61)
# [62] = peptide 99917505 (Seq. ID No. 62)
# [63] = peptide 99917596 (Seq. ID No. 63)
# [64] = peptide 99917626 (Seq. ID No. 64)
# [65] = peptide 99917690 (Seq. ID No. 65)
# [66] = peptide 99917825 (Seq. ID No. 66)
# [67] = peptide 99917890 (Seq. ID No. 67)
# [68] = peptide 99917947 (Seq. ID No. 68)
# [69] = peptide 99918831 (Seq. ID No. 69)
# [70] = peptide 99918906 (Seq. ID No. 70)
# [71] = peptide 99918909 (Seq. ID No. 71)
structure (smiles),measurement,setting,value
CCOc1nc2cccc(C(=O)O)c2n1Cc1ccc(-c2ccccc2-c2nnn[nH]2)cc1 [drug A],f (fold-change of the abundance),[1],1
same,f (fold-change of the abundance),[2],1
same,f (fold-change of the abundance),[3],1
same,f (fold-change of the abundance),[4],1
same,f (fold-change of the abundance),[5],1
same,f (fold-change of the abundance),[6],1
same,f (fold-change of the abundance),[7],1
same,f (fold-change of the abundance),[8],1.4
same,f (fold-change of the abundance),[9],1
same,f (fold-change of the abundance),[10],1.5
same,f (fold-change of the abundance),[11],1
same,f (fold-change of the abundance),[12],1
same,f (fold-change of the abundance),[13],1.15
same,f (fold-change of the abundance),[14],1
same,f (fold-change of the abundance),[15],1
same,f (fold-change of the abundance),[16],1.47
same,f (fold-change of the abundance),[17],1
same,f (fold-change of the abundance),[18],1
same,f (fold-change of the abundance),[19],1
same,f (fold-change of the abundance),[20],1.49
same,f (fold-change of the abundance),[21],1
same,f (fold-change of the abundance),[22],0.65
same,f (fold-change of the abundance),[23],1
same,f (fold-change of the abundance),[24],1
same,f (fold-change of the abundance),[25],1
same,f (fold-change of the abundance),[26],1
same,f (fold-change of the abundance),[27],1
same,f (fold-change of the abundance),[28],0.81
same,f (fold-change of the abundance),[29],1
same,f (fold-change of the abundance),[30],1.26
same,f (fold-change of the abundance),[31],1
same,f (fold-change of the abundance),[32],1
same,f (fold-change of the abundance),[33],1
same,f (fold-change of the abundance),[34],1
same,f (fold-change of the abundance),[35],1.78
same,f (fold-change of the abundance),[36],1
same,f (fold-change of the abundance),[37],1
same,f (fold-change of the abundance),[38],1
same,f (fold-change of the abundance),[39],1
same,f (fold-change of the abundance),[40],1
same,f (fold-change of the abundance),[41],0.68
same,f (fold-change of the abundance),[42],1
same,f (fold-change of the abundance),[43],1
same,f (fold-change of the abundance),[44],1
same,f (fold-change of the abundance),[45],1
same,f (fold-change of the abundance),[46],0.67
same,f (fold-change of the abundance),[47],1
same,f (fold-change of the abundance),[48],1.83
same,f (fold-change of the abundance),[49],0.67
same,f (fold-change of the abundance),[50],1
same,f (fold-change of the abundance),[51],1
same,f (fold-change of the abundance),[52],1.27
same,f (fold-change of the abundance),[53],1
same,f (fold-change of the abundance),[54],1
same,f (fold-change of the abundance),[55],1
same,f (fold-change of the abundance),[56],1
same,f (fold-change of the abundance),[57],0.64
same,f (fold-change of the abundance),[58],0.74
same,f (fold-change of the abundance),[59],1
same,f (fold-change of the abundance),[60],1
same,f (fold-change of the abundance),[61],1
same,f (fold-change of the abundance),[62],1
same,f (fold-change of the abundance),[63],1
same,f (fold-change of the abundance),[64],1
same,f (fold-change of the abundance),[65],1
same,f (fold-change of the abundance),[66],1
same,f (fold-change of the abundance),[67],1
same,f (fold-change of the abundance),[68],1
same,f (fold-change of the abundance),[69],1
same,f (fold-change of the abundance),[70],1
same,f (fold-change of the abundance),[71],1
"CC(=O)S[C@@H]1CC2=CC(=O)CC[C@]2(C)[C@H]2CC[C@@]3(C)[C@@H](CC[C@@]34CCC(=O)O4)[C@H]12 [drug B, Spironolactone]",f (fold-change of the abundance),[1],1
same,f (fold-change of the abundance),[2],1
same,f (fold-change of the abundance),[3],1
same,f (fold-change of the abundance),[4],1
same,f (fold-change of the abundance),[5],1
same,f (fold-change of the abundance),[6],1
same,f (fold-change of the abundance),[7],1
same,f (fold-change of the abundance),[8],1
same,f (fold-change of the abundance),[9],1
same,f (fold-change of the abundance),[10],1
same,f (fold-change of the abundance),[11],1
same,f (fold-change of the abundance),[12],1
same,f (fold-change of the abundance),[13],1
same,f (fold-change of the abundance),[14],0.77
same,f (fold-change of the abundance),[15],1.97
same,f (fold-change of the abundance),[16],1
same,f (fold-change of the abundance),[17],1
same,f (fold-change of the abundance),[18],1
same,f (fold-change of the abundance),[19],1
same,f (fold-change of the abundance),[20],1
same,f (fold-change of the abundance),[21],1
same,f (fold-change of the abundance),[22],1
same,f (fold-change of the abundance),[23],1
same,f (fold-change of the abundance),[24],1
same,f (fold-change of the abundance),[25],1
same,f (fold-change of the abundance),[26],0.78
same,f (fold-change of the abundance),[27],1
same,f (fold-change of the abundance),[28],1
same,f (fold-change of the abundance),[29],1
same,f (fold-change of the abundance),[30],1
same,f (fold-change of the abundance),[31],1
same,f (fold-change of the abundance),[32],1
same,f (fold-change of the abundance),[33],1
same,f (fold-change of the abundance),[34],1
same,f (fold-change of the abundance),[35],1
same,f (fold-change of the abundance),[36],1.5
same,f (fold-change of the abundance),[37],1
same,f (fold-change of the abundance),[38],1
same,f (fold-change of the abundance),[39],1.21
same,f (fold-change of the abundance),[40],1
same,f (fold-change of the abundance),[41],0.65
same,f (fold-change of the abundance),[42],1
same,f (fold-change of the abundance),[43],1
same,f (fold-change of the abundance),[44],1.5
same,f (fold-change of the abundance),[45],1
same,f (fold-change of the abundance),[46],1
same,f (fold-change of the abundance),[47],0.72
same,f (fold-change of the abundance),[48],1
same,f (fold-change of the abundance),[49],1
same,f (fold-change of the abundance),[50],1
same,f (fold-change of the abundance),[51],1
same,f (fold-change of the abundance),[52],1
same,f (fold-change of the abundance),[53],1.88
same,f (fold-change of the abundance),[54],1
same,f (fold-change of the abundance),[55],1
same,f (fold-change of the abundance),[56],1
same,f (fold-change of the abundance),[57],0.82
same,f (fold-change of the abundance),[58],1
same,f (fold-change of the abundance),[59],1
same,f (fold-change of the abundance),[60],1
same,f (fold-change of the abundance),[61],1
same,f (fold-change of the abundance),[62],1
same,f (fold-change of the abundance),[63],1
same,f (fold-change of the abundance),[64],1
same,f (fold-change of the abundance),[65],1
same,f (fold-change of the abundance),[66],1
same,f (fold-change of the abundance),[67],1
same,f (fold-change of the abundance),[68],1
same,f (fold-change of the abundance),[69],1.27
same,f (fold-change of the abundance),[70],1
same,f (fold-change of the abundance),[71],0.62
